Several values for one entry are separate records, joined by “and”; a condition that tells them apart may be missing. Equal entries are not always repeated. Blank lines part the entries; values can stand above or below the molecule they belong to.
Test system: A498 complex spheroid viability
Experiment: Anticancer human tumor A498 cell line growth inhibition;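 also: spheroids exposed to agents for seven days before readout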;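 as to viability, T/C: 100% = DMSO vehicle-treated spheroids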
Settings: for viability, T/C: stronger effect = lower value
How it was run: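 Drug combinations with the LSD1 inhibitor iadademstat tested on tumor cells co-cultured as spheroids with endothelial cells and mesenchymal stem cells. Concentrations descended in half-log increments from clinical Cmax or 10 microM.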

[1] = curve of first compound, second compound 0.1 µM
[2] = curve of first compound, second compound 0.316 µM
[3] = curve of first compound, second compound 1 µM
[4] = curve of first compound, second compound 3.16 µM
[5] = curve of first compound, second compound 10 µM
[6] = second compound 0.1 µM, first compound 0.00316 µM
[7] = second compound 0.1 µM, first compound 0.01 µM
[8] = second compound 0.1 µM, first compound 0.0316 µM
[9] = second compound 0.1 µM, first compound 0.1 µM
[10] = second compound 0.316 µM, first compound 0.00316 µM
[11] = second compound 0.316 µM, first compound 0.01 µM
[12] = second compound 0.316 µM, first compound 0.0316 µM
[13] = second compound 0.316 µM, first compound 0.1 µM
[14] = second compound 1 µM, first compound 0.00316 µM
[15] = second compound 1 µM, first compound 0.01 µM
[16] = second compound 1 µM, first compound 0.0316 µM
[17] = second compound 1 µM, first compound 0.1 µM
[18] = second compound 3.16 µM, first compound 0.00316 µM
[19] = second compound 3.16 µM, first compound 0.01 µM
[20] = second compound 3.16 µM, first compound 0.0316 µM
[21] = second compound 3.16 µM, first compound 0.1 µM
[22] = second compound 10 µM, first compound 0.00316 µM
[23] = second compound 10 µM, first compound 0.01 µM
[24] = second compound 10 µM, first compound 0.0316 µM
[25] = second compound 10 µM, first compound 0.1 µM

SMILES: CC1COCCN1c1cc(-c2ccnn2C)c2ccnc(-c3ccn[nH]3)c2n1 (configuration not stated) + NC1CCC(NC2CC2c2ccccc2)CC1
IC50 [1]: 21.9 nM | IC50 [2]: 24.7 nM | IC50 [3]: 24.5 nM | IC50 [4]: 22.8 nM | IC50 [5]: 14.1 nM | viability, T/C [6]: 83.9% | viability, T/C [7]: 76.2% | viability, T/C [8]: 37.5% | viability, T/C [9]: 16.3% | viability, T/C (second compound 0.1 µM, first compound 0.316 µM): 14% | viability, T/C (second compound 0.1 µM, first compound 1 µM): 9.97% | viability, T/C [10]: 89.7% | viability, T/C [11]: 79.6% | viability, T/C [12]: 41.3% | viability, T/C [13]: 19.1% | viability, T/C (second compound 0.316 µM, first compound 0.316 µM): 14.3% | viability, T/C (second compound 0.316 µM, first compound 1 µM): 10.5% | viability, T/C [14]: 84.8% | viability, T/C [15]: 74.4% | viability, T/C [16]: 42.8% | viability, T/C [17]: 19.3% | viability, T/C (second compound 1 µM, first compound 0.316 µM): 15% | viability, T/C (second compound 1 µM, first compound 1 µM): 9.26% | viability, T/C [18]: 81.5% | viability, T/C [19]: 71.2% | viability, T/C [20]: 41.4% | viability, T/C [21]: 19.4% | viability, T/C (second compound 3.16 µM, first compound 0.316 µM): 14.8% | viability, T/C (second compound 3.16 µM, first compound 1 µM): 9.59% | viability, T/C [22]: 71.5% | viability, T/C [23]: 58.9% | viability, T/C [24]: 30.7% | viability, T/C [25]: 22.7% | viability, T/C (second compound 10 µM, first compound 0.316 µM): 13.9% | viability, T/C (second compound 10 µM, first compound 1 µM): 9.55%

SMILES: Nc1ccn(C2OC(CO)C(O)C2(F)F)c(=O)n1 (configuration not stated) + NC1CCC(NC2CC2c2ccccc2)CC1
IC50 [1]: < 0.949 nM | IC50 [2]: < 0.949 nM | IC50 [3]: < 0.949 nM | IC50 [4]: < 0.949 nM | IC50 [5]: < 0.949 nM | viability, T/C (second compound 0.1 µM, first compound 0.000949 µM): 25.7% | viability, T/C (second compound 0.1 µM, first compound 0.003 µM): 32.9% | viability, T/C (second compound 0.1 µM, first compound 0.00949 µM): 41.2% | viability, T/C (second compound 0.1 µM, first compound 0.03 µM): 38% | viability, T/C (second compound 0.1 µM, first compound 0.0949 µM): 36.8% | viability, T/C (second compound 0.1 µM, first compound 0.3 µM): 29.9% | viability, T/C (second compound 0.316 µM, first compound 0.000949 µM): 24.3% | viability, T/C (second compound 0.316 µM, first compound 0.003 µM): 33.9% | viability, T/C (second compound 0.316 µM, first compound 0.00949 µM): 44.2% | viability, T/C (second compound 0.316 µM, first compound 0.03 µM): 43.3% | viability, T/C (second compound 0.316 µM, first compound 0.0949 µM): 36.8% | viability, T/C (second compound 0.316 µM, first compound 0.3 µM): 31.1% | viability, T/C (second compound 1 µM, first compound 0.000949 µM): 21.7% | viability, T/C (second compound 1 µM, first compound 0.003 µM): 32.8% | viability, T/C (second compound 1 µM, first compound 0.00949 µM): 43.2% | viability, T/C (second compound 1 µM, first compound 0.03 µM): 40.8% | viability, T/C (second compound 1 µM, first compound 0.0949 µM): 29.9% | viability, T/C (second compound 1 µM, first compound 0.3 µM): 29.3% | viability, T/C (second compound 3.16 µM, first compound 0.000949 µM): 23.8% | viability, T/C (second compound 3.16 µM, first compound 0.003 µM): 30.5% | viability, T/C (second compound 3.16 µM, first compound 0.00949 µM): 38.2% | viability, T/C (second compound 3.16 µM, first compound 0.03 µM): 38.2% | viability, T/C (second compound 3.16 µM, first compound 0.0949 µM): 30.8% | viability, T/C (second compound 3.16 µM, first compound 0.3 µM): 30.3% | viability, T/C (second compound 10 µM, first compound 0.000949 µM): 22.3% | viability, T/C (second compound 10 µM, first compound 0.003 µM): 26.7% | viability, T/C (second compound 10 µM, first compound 0.00949 µM): 39.8% | viability, T/C (second compound 10 µM, first compound 0.03 µM): 38.5% | viability, T/C (second compound 10 µM, first compound 0.0949 µM): 27.9% | viability, T/C (second compound 10 µM, first compound 0.3 µM): 25.5%

SMILES: CC(C)CC(NC(=O)CNC(=O)c1cc(Cl)ccc1Cl)B1OC(=O)CC(CC(=O)O)(C(=O)O)O1 (configuration not stated) + NC1CCC(NC2CC2c2ccccc2)CC1
IC50 [1]: 4.58 nM | IC50 [2]: 4.93 nM | IC50 [3]: 4.56 nM | IC50 [4]: 4.16 nM | IC50 [5]: 2.95 nM | viability, T/C (second compound 0.1 µM, first compound 0.000316 µM): 86.6% | viability, T/C (second compound 0.1 µM, first compound 0.001 µM): 91.6% | viability, T/C [6]: 64.4% | viability, T/C [7]: 18.1% | viability, T/C [8]: 4.94% | viability, T/C [9]: 3.27% | viability, T/C (second compound 0.316 µM, first compound 0.000316 µM): 94.3% | viability, T/C (second compound 0.316 µM, first compound 0.001 µM): 102% | viability, T/C [10]: 72% | viability, T/C [11]: 14.6% | viability, T/C [12]: 5.43% | viability, T/C [13]: 2.63% | viability, T/C (second compound 1 µM, first compound 0.000316 µM): 87.7% | viability, T/C (second compound 1 µM, first compound 0.001 µM): 96.5% | viability, T/C [14]: 65.5% | viability, T/C [15]: 15.4% | viability, T/C [16]: 3.18% | viability, T/C [17]: 1.44% | viability, T/C (second compound 3.16 µM, first compound 0.000316 µM): 84.3% | viability, T/C (second compound 3.16 µM, first compound 0.001 µM): 91.2% | viability, T/C [18]: 62.4% | viability, T/C [19]: 9.48% | viability, T/C [20]: 2.6% | viability, T/C [21]: 0.83% | viability, T/C (second compound 10 µM, first compound 0.000316 µM): 74.9% | viability, T/C (second compound 10 µM, first compound 0.001 µM): 83.3% | viability, T/C [22]: 47.5% | viability, T/C [23]: 7.21% | viability, T/C [24]: 1.59% | viability, T/C [25]: 0.69%

IC50 (curve of compound): 144 nM and 202 nM
SMILES: Nc1ncn(C2CC(O)C(CO)S2)c(=O)n1 (configuration not stated)
viability, T/C (compound 0.000949 µM): 105% and 109% | viability, T/C (compound 0.003 µM): 104% and 117% | viability, T/C (compound 0.00949 µM): 99.6% and 102% | viability, T/C (compound 0.03 µM): 85.2% and 89.5% | viability, T/C (compound 0.0949 µM): 59.4% and 70% | viability, T/C (compound 0.3 µM): 33.8% and 40%
